This is an account of results in patent publication US20260265305A1, “POLYPEPTIDE DERIVATIVE FOR ORAL DELIVERY” (Hangzhou Sciwind Biosciences Co., Ltd., priority 2023, published 2026).

Molecules are shown by their SMILES. Numbered stars: 1 amine (or outer) side, 2 acyl side, 3 side chain; on linkers, the order of the positions; unused ones are H or OH. Bridge positions count the residues as written; N and C are the ends. Square brackets hold non-standard residues; d marks the D form. Peptide text beside a SMILES is read from it. * marks the point of attachment. C20 diacid = O=C(O)CCCCCCCCCCCCCCCCCCC(=O)*; βAsp = O=C(O)[C@H](CC(=O)[*:2])N[*:1]; Hyp = O=C(O)[C@@H]1C[C@@H](O)CN1; Trx = NC[C@H]1CC[C@H](C(=O)O)CC1; AEEA = NCCOCCOCC(=O)O; Inp = O=C(O)C1CCNCC1

Series [1] can be described thus: Efficacy assay in SD rats, dose-dependent study, single subcutaneous dose. It is filed as in vivo. The conditions noted are these: Table 9. The text has this:
[…] Food intake was the amount of food consumed by each of the animals per day.

Series [2] is described as follows: Heat accelerated stability assay of polypeptide solutions (40° C., pH about 7.4), reversed phase chromatography. Type of series: physicochemical. Conditions: for Purity change on 7 d / Purity change on 26 d: reversed phase chromatography 214 nm; for Purity change on 7 d / Concentration change on 26 d / Purity change on 26 d: 40° C.; for Purity change on 7 d: Day 7, purity on 7 d − purity on 0 d; for Concentration change on 26 d: pH about 7.4, 1 mg/mL; for Concentration change on 26 d / Purity change on 26 d: Day 26; for Purity change on 26 d: purity on 26 d − purity on 0 d. A digest of the protocol:
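Polypeptide derivative lyophilisate (1 mg/mL) with sodium dihydrogen phosphate (1.42 mg/mL) in water, pH about 7.4, sterile-filtered, vialed and held at 40° C; sampled on days 7 and 26. After centrifugation, concentration and purity (target/total peak area) by C18 RP-HPLC, TFA/ACN gradient, 280 and 214 nm.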

Series [3] in a line: Animal study: weight change and accumulated food intake in SD rats after subcutaneous dosing. Conditions: 10 nmol/kg subcutaneous; for effect on body weight of SD rats: FIGS. 1 and 3; for effect on accumulated food intake of SD rats: FIGS. 2 and 4. It is filed as in vivo, SD (Sprague Dawley) rats. The text has this:
SD (Sprague Dawley) rats weighing 200-250 g were used for this study. The rats were received at least 10-14 days before the study began such that they could accommodate to the experimental environment. After arrival, they were exposed to a reversed light/dark cycle (i.e., lights switched off in daytime and on in nighttime) for two weeks and were individually housed for the first week so as to ensure high data accuracy and test sensitivity. Throughout the acclimation and experiment period, the rats had free access to food and water. 5-8 rats were assigned to each testing group for the derivatives and were subcutaneously administered the derivatives at a dose of 10 nmol/kg or a vehicle (20 mM phosphate buffer, PB, pH 7.0), and the dosing timepoint was recorded for each group. After dosing, the rats were put back into cages where they were housed and could have access to food and water. Food consumption and weight change of the rats were recorded online or manually every 24 hours. Percent of weight change=(BWTn−BWT0)/BWT0*100%, wherein BW represented the value of body weight, and T0 and Tn represented the time point of dosing and n hours post dose respectively. Dots in the figures were represented utilizing mean±standard error of the mean (SEM).

Series [4] addresses T1, calcitonin receptor (hCTR) (Homo sapiens, UniProt P30988).
T1 construct: host or cells: CHO-K1/CALCR/Ga15 cells, further stably transfected with a CRE-luciferase plasmid
T1 sequence (P30988 25-474): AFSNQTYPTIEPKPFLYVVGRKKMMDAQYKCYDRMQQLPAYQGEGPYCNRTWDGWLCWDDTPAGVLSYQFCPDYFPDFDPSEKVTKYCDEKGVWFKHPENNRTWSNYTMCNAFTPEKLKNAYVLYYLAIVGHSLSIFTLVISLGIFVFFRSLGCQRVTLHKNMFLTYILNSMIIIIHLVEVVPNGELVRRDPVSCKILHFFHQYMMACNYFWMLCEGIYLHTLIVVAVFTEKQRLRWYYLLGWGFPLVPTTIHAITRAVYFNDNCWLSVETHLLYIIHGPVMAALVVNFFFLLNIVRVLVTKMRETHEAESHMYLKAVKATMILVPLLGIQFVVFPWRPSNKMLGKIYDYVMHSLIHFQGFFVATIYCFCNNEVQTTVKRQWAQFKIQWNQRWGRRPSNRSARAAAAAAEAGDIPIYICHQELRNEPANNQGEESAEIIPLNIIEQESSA
Nature of the series: Calcitonin receptor agonism, CRE-luciferase assay in stably transfected CHO-K1/CALCR/Ga15 cells. Type of series: cell-based. The conditions noted are these: for Fold change in activity against hCTR: relative to D1 as benchmark.

The next series concerns the target T2, amylin receptor (hAMY3R) (Homo sapiens, UniProt O60896+P30988).
T2 construct: host or cells: CHO-K1/Ga15/AMY3 cells, further stably transfected with a CRE-luciferase plasmid
T2 sequence (P30988 25-474): T1 sequence (P30988 25-474)
T2 sequence (O60896 24-148): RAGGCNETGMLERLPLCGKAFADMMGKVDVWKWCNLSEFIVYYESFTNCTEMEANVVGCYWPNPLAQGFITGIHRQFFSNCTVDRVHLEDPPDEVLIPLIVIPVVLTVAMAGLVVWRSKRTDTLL
As to the kind of experiment: Amylin receptor agonism testing, CRE-luciferase assay in stably transfected CHO-K1/Ga15/AMY3 cells. It is filed as cell-based. The conditions noted are these: for Fold change in activity against hAMY3R: relative to D1 as benchmark.

For series [5] the following is noted: dog, in vivo, 7 mg.
Experimental: Whole blood of the animals was collected pre dose (−10 min) and 2 h, 4 h, and 8 h post dose on Day 1, pre dose (−10 min) and 2 h and 4 h post dose on Day 2-Day 4, and pre dose (−10 min) and 2 h, 4 h, 8 h, 24 h, 48 h, and 72 h post dose on Day 5, and processed into plasma using heparin sodium as an anticoagulant. […] Experimental data was plotted using GraphPad Prism9.3.1.

Text for amylin receptor (hAMY3R): The objective of this assay is to test the potency of the polypeptide derivatives in the present application on amylin and calcitonin receptors in vitro using a luciferase assay.
Using the standard protocol for construction of an amylin receptor/CRE-luc cell line, CHO-K1/Ga15/AMY3 cells (purchased from GenScript, with the calcitonin receptor and the receptor activity modifying peptide (RAMP) constructed already) were transfected with a plasmid containing a luciferase expression cassette driven by multiple copies of cAMP response elements (CREs). The cells were cultured in an F12 medium containing 200 ug/mL Zeocin, 2 ug/mL puromycin, 100 ug/mL hygromycin, and 400 ug/mL G418 to afford a stably transfected amylin receptor/CRE-luc cell line.
To each well of a white 96-well plate was added 50 μL of the tested sample solution at a respective concentration.
The stably transfected amylin receptor/CRE-luc CHO cells were resuspended in the growth medium at a certain density, and 50 μL of the cell suspension was added at a density of about 20,000 cells per well to the white 96-well plate containing the tested sample solution. After incubation of 24 hours at 37° C. and 5% CO2, 100 μL of a Luciferase substrate was added to each well, incubated for 3 minutes, and finally was tested for luminescence on SpectraMax L (Molecular Devices) with the software SoftMax Pro 7.0.3 GxP. A standard curve was plotted using the fluorescent intensities for calculation of EC50.

In the case of `CC[C@H](C)[C@H](NC(=O)[C@@H]1CCCN1C(=O)CNC(=O)[C@H](Cc1ccccc1)NC(=O)[C@H](CC(N)=O)NC(=O)[C@H](CC(N)=O)NC(=O)[C@H](CO)NC(=O)[C@H](CO)NC(=O)[C@H](Cc1c[nH]cn1)NC(=O)[C@H](CCCNC(=N)N)NC(=O)[C@H](CC(C)C)NC(=O)[C@H](Cc1ccccc1)NC(=O)[C@H](CCC(=O)O)NC(=O)[C@H](C)NC(=O)[C@H](CC(C)C)NC(=O)[C@H](CCCNC(=N)N)NC(=O)[C@H](CCC(N)=O)NC(=O)[C@@H](NC(=O)[C@H](C)NC(=O)[C@@H]1CSSC[C@H](NC(=O)[C@H](CCCCN)NC(=O)CC[C@H](NC(=O)CCCCCCCCCCCCCCCCCCC(=O)O)C(=O)O)C(=O)N[C@@H](CC(N)=O)C(=O)N[C@@H]([C@@H](C)O)C(=O)N[C@@H](C)C(=O)N[C@@H]([C@@H](C)O)C(=O)N1)[C@@H](C)O)C(=O)N[C@@H](CC(C)C)C(=O)N1CCC[C@H]1C(=O)N1CCC[C@H]1C(=O)N[C@H](C(=O)N[C@@H](CC(N)=O)C(=O)N[C@H](C(=O)NCC(=O)N[C@@H](CO)C(=O)N[C@@H](CC(N)=O)C(=O)N[C@H](C(=O)N1CCC[C@H]1C(N)=O)[C@@H](C)O)C(C)C)[C@@H](C)O` [D1, Cagrilintide], in series [1] (30 nmol/kg single s.c. dose), the “24 h food intake” value amounted to 5.250 g and the “24 h weight change” value is listed as −6.416%. Moreover, in series [1] (100 nmol/kg single s.c. dose), the “24 h food intake” value is given as 2.100 g and the “24 h weight change” value is given as −9.103%. In series [2] (Day 7 of the accelerated testing), this compound returned a purity decrease of 12.73%. The “appearance (clarity) of the solution” value in series [2] (Day 26 of the heat accelerated assay) is recorded as “foreign matters were readily observable”. Further, the “Purity change on 7 d” value in series [2] is on record as −12.73%.
As to `CC(C)C[C@H](NC(=O)[C@H](CCCNC(=N)N)NC(=O)CNC(=O)[C@H](CC(C)C)NC(=O)[C@@H](NC(=O)[C@H](C)NC(=O)[C@@H](NC(=O)[C@H](CO)NC(=O)[C@H](CC(C)C)NC(=O)[C@H](CCC(N)=O)NC(=O)[C@H](CO)NC(=O)[C@H](C)NC(=O)COCCOCCNC(=O)COCCOCCNC(=O)[C@H]1CC[C@H](CNC(=O)CCCCCCCCCCCCCCCCCCC(=O)O)CC1)[C@@H](C)O)C(C)C)C(=O)N[C@@H](CO)C(=O)N[C@@H](CC(=O)O)C(=O)N[C@@H](CCC(=O)O)C(=O)N[C@@H](CC(C)C)C(=O)N[C@@H](Cc1c[nH]cn1)C(=O)N[C@@H](CCCNC(=N)N)C(=O)N[C@@H](CC(C)C)C(=O)N[C@@H](CCC(N)=O)C(=O)N[C@@H](CC(=O)O)C(=O)N[C@@H](Cc1ccc(O)cc1)C(=O)N1CCC[C@H]1C(=O)N[C@@H](CCCNC(=N)N)C(=O)N[C@H](C(=O)N[C@@H](CC(=O)O)C(=O)N[C@H](C(=O)NCC(=O)N[C@@H](CO)C(=O)NCC(=O)N[C@@H](CO)C(=O)N1CCC[C@H]1C(N)=O)C(C)C)[C@@H](C)O` [M27] ({C20 diacid-Trx-AEEA-AEEA}-ASQLSTAVLGRLSDELHRLQDYPRTDVGSGSP-NH2), in series [3], the “effect on body weight of SD rats” value was “apparently further reduced” and the “effect on accumulated food intake of SD rats” value was “apparently further reduced”. For the same compound, in series [4], the “Fold change in activity against hCTR” value is reported as 0.161. Moreover, the “Fold change in activity against hAMY3R” value at amylin receptor (hAMY3R) worked out at 9.000. In series [2], the “Concentration change on 26 d” value is −2.286%, the “Purity change on 7 d” value was “No change” and the “Purity change on 26 d” value is reported as −1.27%.
One may read the EC50 as the midpoint of the concentration-response curve. `CC(C)C[C@H](NC(=O)[C@H](CCCNC(=N)N)NC(=O)CNC(=O)[C@H](CC(C)C)NC(=O)[C@@H](NC(=O)[C@H](C)NC(=O)[C@@H](NC(=O)[C@H](CO)NC(=O)[C@H](CC(C)C)NC(=O)[C@H](CCC(N)=O)NC(=O)[C@H](CO)NC(=O)[C@H](C)NC(=O)COCCOCCNC(=O)COCCOCCNC(=O)C1CCN(C(=O)CCCCCCCCCCCCCCCCCCC(=O)O)CC1)[C@@H](C)O)C(C)C)C(=O)N[C@@H](CO)C(=O)N[C@@H](CC(=O)O)C(=O)N[C@@H](CCC(=O)O)C(=O)N[C@@H](CC(C)C)C(=O)N[C@@H](Cc1c[nH]cn1)C(=O)N[C@@H](CCCNC(=N)N)C(=O)N[C@@H](CC(C)C)C(=O)N[C@@H](CCC(N)=O)C(=O)N[C@@H](CC(=O)O)C(=O)N[C@@H](Cc1ccc(O)cc1)C(=O)N1CCC[C@H]1C(=O)N[C@@H](CCCNC(=N)N)C(=O)N[C@H](C(=O)N[C@@H](CC(=O)O)C(=O)N[C@H](C(=O)NCC(=O)N[C@@H](CO)C(=O)NCC(=O)N[C@@H](CO)C(=O)N1CCC[C@H]1C(N)=O)C(C)C)[C@@H](C)O` [M29] ({C20 diacid-Inp-AEEA-AEEA}-ASQLSTAVLGRLSDELHRLQDYPRTDVGSGSP-NH2): in series [3], the “effect on body weight of SD rats” value is listed as “apparently further reduced” and the “effect on accumulated food intake of SD rats” value is “apparently further reduced”. In series [4] (Table 5 integrated analysis, read-out: hCTR EC50), the EC50 is 0.156 nM. Moreover, the “Fold change in activity against hCTR” value in series [4] is 0.551. Besides, at amylin receptor (hAMY3R) (incubation of 24 hours, Table 3, read-out: EC50, activity against the amylin receptor in cells), the concentration giving a half-maximal response (EC50) turned out to be 0.006 nM. The “Fold change in activity against hAMY3R” value on amylin receptor (hAMY3R) stood at 6.000. In addition, in series [2], the “Concentration change on 26 d” value is recorded as “No change (concentration change of less than 1% (denoted as “no change”))”, the “Purity change on 7 d” value was “No change” and the “Purity change on 26 d” value is reported as −1.2%.
Take `CC[C@H](C)[C@H](NC(=O)[C@@H]1CCCN1C(=O)[C@H](CCCCN)NC(=O)[C@H](CC(C)C)NC(=O)[C@H](CC(N)=O)NC(=O)[C@H](CC(N)=O)NC(=O)[C@H](CO)NC(=O)[C@H](CO)NC(=O)[C@H](Cc1c[nH]cn1)NC(=O)[C@H](CCCNC(=N)N)NC(=O)[C@H](CC(C)C)NC(=O)[C@H](Cc1ccccc1)NC(=O)[C@H](CC(=O)O)NC(=O)[C@H](C)NC(=O)[C@H](CC(C)C)NC(=O)[C@H](CCCNC(=N)N)NC(=O)[C@H](CCC(N)=O)NC(=O)[C@@H](NC(=O)[C@H](C)NC(=O)[C@@H]1CSSC[C@H](NC(=O)[C@H](CCCCN)NC(=O)COCCOCCNC(=O)COCCOCCNC(=O)C[C@H](NC(=O)CCCCCCCCCCCCCCCCCCC(=O)O)C(=O)O)C(=O)N[C@@H](CC(N)=O)C(=O)N[C@@H]([C@@H](C)O)C(=O)N[C@@H](C)C(=O)N[C@@H]([C@@H](C)O)C(=O)N1)[C@@H](C)O)C(=O)N[C@@H](CC(C)C)C(=O)N1CCC[C@H]1C(=O)N1CCC[C@H]1C(=O)N[C@H](C(=O)N[C@@H](CC(N)=O)C(=O)N[C@H](C(=O)NCC(=O)N[C@@H](CO)C(=O)N[C@@H](CC(N)=O)C(=O)N[C@H](C(=O)N1C[C@H](O)C[C@H]1C(N)=O)[C@@H](C)O)C(C)C)[C@@H](C)O` [N2] ({C20 diacid-βAsp-AEEA-AEEA}-KCNTATCATQRLADFLRHSSNNLKPILPPTNVGSNT[Hyp]-NH2; disulfide 2-7 (inferred)): the oral bioavailability result in series [5] is “extraordinarily high oral bioavailability”.
